# Laboratory results: patent publication US20240285808A1, “MOLECULAR PROBES FOR IN VIVO DETECTION OF ALDEHYDES” (The General Hospital Corporation, priority 2021, published 2024)
# Values joined by “and” are separate entries in the source; they are usually repeats but may differ in a detail not shown here. Equal values may be shown once.
# Experiments:
# liver of CDAHFD mice = assay: MR imaging of liver in non-alcoholic steatohepatitis (CDAHFD) model; format: in vivo, mouse; settings: 20 min post injection
# Description: Non-Alcoholic Steatohepatitis Liver Fibrosis Model:
# A total of 40 C57BL/6 mice were used and randomized to each study group. To induce NASH, 6-week old, male C57BL/6 mice (Charles River Labs, Wilmington, MA) were fed a choline deficient, high fat diet (CDAHFD) consisting of 60 kcal % fat and 0.1% methionine (A06071302; Research Diets, New Brunswick, NJ) by weight. No animals were excluded from the study.
# Three groups of mice were studied:
# Group A, mice were fed CDAHFD for 2 (n=6), 6 (n=6), 10 (n=6) weeks and imaged with probe Gd-9.
# Group B, mice were fed CDAHFD for 10 weeks followed by normal chow for 1 (n=6) or 4 weeks (n=6) and imaged with probe Gd-9.
# Group C, mice were fed normal chow for 2, 6, 10, 11 or 14 weeks (n=10) and imaged with probe Gd-9.
# Animals were anesthetized with isoflurane (1-2%) and placed in a specially designed cradle with body temperature maintained at 37° C. The inhaled isoflurane level was adjusted to maintain a respiration rate of 60±5 breaths per minute. The tail vein was cannulated for intravenous (i.v.) delivery of the contrast agent while the animal was positioned in the scanner. Imaging was performed at 4.7 T using a small bore animal scanner with a custom-built volume coil. Mice were imaged with a dose of 100 μmol/kg from 30 mM stock solution of Gd or Mn complex.
# Following the imaging session, animals were sacrificed (75 min p.i.) and liver tissue was subjected to histopathologic analysis.
# For liver imaging analysis, a region of interest (ROI) was manually traced encompassing the liver parenchyma while avoiding major blood vessels. A second ROI was placed on the dorsal muscle visible in the same image slice to quantify the signal intensity in the muscle for comparison. Seven ROIs were placed in the field of view without any tissue (air) to measure the variation in background signal. More than 20 axial slices per mouse across the entire liver were analyzed in this fashion. […] Contrast to noise ratio (CNR) was calculated by measuring the difference in signal intensity (SI) between liver and muscle and normalizing to the standard deviation of the signal in the air, eq 21. ΔCNR was calculated by subtracting CNR measured prior to probe injection (CNRPre) from CNR measured after injection (CNRPost), eq 22.
# Mice were fed with CDAHFD or standard chow for 2, 6, or 10 weeks; two additional groups of mice received CDAHFD for 10 weeks and then standard chow for 1 or 4 weeks (FIG. 70; 2 wk, 6 wk, and 10 wk bars correspond to CDAHFD; 1 wk and 4 wk bars correspond to standard chow; “MRI” indicates MRI with Gd-9).
# liver of BDL rats = assay: LA-ICP-MS gadolinium imaging of rat liver after Gd-9 MRI; format: in vivo; settings: BDL rat liver harvested 30 min p.i.
# Protocol: LA-ICP-MS Gadolinium Imaging Analysis
# Sample preparation. Harvested rat livers after MR imaging were immediately snapfrozen in OCT using liquid nitrogen, sectioned into 10-μm-thick slices, stored in −80° C. One slice was assessed by LA-ICP-MS directly. One adjacent slide was incubated with 0.1 mM Gd-9 at 37° C. for 2 h, followed with 0.2 mM NaBH3CN for 2 h and washed with PBS (3×10 min). Another adjacent slide was incubated with 0.1 mM Gd-9 and 10 mM hydrazine at 37° C. for 2 h, followed with 0.2 mM NaBH3CN for 2 hand washed with PBS (3×10 min). Similar procedures were carried out for human tissues. Slides were incubated with 0.1 mM Gd-9 at 37° C. for 2h, followed with 0.2 mM NaBH3CN for 2 h and washed with PBS (3×10 min).
# Gadolinium mapping. Elemental images were collected from sections of liver tissue via laser ablation inductively coupled plasma mass spectrometry at the Biomedical National Elemental Imaging Resource (BNEIR). The instrumentation used was a New Wave Research 213 nm laser ablation system with a 10 cm^2 sample chamber, interfaced with an Agilent 7900 ICP-MS system. Samples were ablated in no-gas mode, with helium as a carrier gas at a flow rate of 600 L min^−1. […] Elemental imaging data was quantified using metal-doped gelatin standards prepared at BNEIR and National Institute of Standards and Technology (NIST) certified references material 1515 (apple leaves). […]
smiles,measurement,setting,value
"NN1CCN(C(=O)CCC(C(=O)[O-])N2CCN(CC(=O)[O-])CCN(CC(=O)[O-])CCN(C(CCC(=O)N3CCN(N)CC3)C(=O)[O-])CC2)CC1.[Gd+3] (stereo not drawn) [Gd-9, cis-1,4-Gd-(CHyd)2]",ΔCNR of liver (row head ACNR),liver of CDAHFD mice; 2 wk CDAHFD,1.3±0.4 and 1.3 ± 0.3
same,ΔCNR of liver (row head ACNR),liver of CDAHFD mice; 6 wk CDAHFD,2.1 ± 0.4
same,ΔCNR of liver (row head ACNR),liver of CDAHFD mice; 10 wk CDAHFD then 1 wk Withdrawal,0.9±0.3
same,ΔCNR of liver (row head ACNR),liver of CDAHFD mice; 10 wk CDAHFD then 4 wk Withdrawal,0.3±0.2
same,ΔCNR of liver (row head ACNR),liver of CDAHFD mice; 10 wk CDAHFD,2.5±0.5
same,ΔCNR of liver (row head ACNR),liver of CDAHFD mice; Control (standard chow),0.1±0.4
same,Gd accumulation in fibrotic septa (LA-ICP-MS),liver of BDL rats,~50 ppm
